Non-standard residues stand in square brackets, D forms with d. Residues, ends and D or L forms follow the SMILES beside them. *: point of attachment. Arg(Nω,Nω'-propylene) = N[C@@H](CCCNC1=NCCCN1)C(=O)O; Phe(4-CF3) = N[C@@H](Cc1ccc(C(F)(F)F)cc1)C(=O)O; Ala(pyrazol-1-yl) = N[C@@H](Cn1cccn1)C(=O)O; dPro(cis-4-NH2) = N[C@H]1CN[C@@H](C(=O)O)C1; 1Nal = N[C@@H](Cc1cccc2ccccc12)C(=O)O; 2Nal = N[C@@H](Cc1ccc2ccccc2c1)C(=O)O; Pro(3S-OH) = O=C(O)[C@H]1NCC[C@@H]1O; dCit = NC(=O)NCCC[C@@H](N)C(=O)O; Tic = O=C(O)[C@@H]1Cc2ccccc2CN1; aThr = C[C@H](O)[C@H](N)C(=O)O; 2Pyrimidinyl = c1cnc(*)nc1; dPip = O=C(O)[C@H]1CCCCN1; Orn = NCCC[C@H](N)C(=O)O; Dab = NCC[C@H](N)C(=O)O
What follows are compounds tested against T1, CXCR7 (Homo sapiens, UniProt P25106) (assay: CXCR7 β-arrestin recruitment assay (PathHunter CHO-CXCR7, DiscoverX), agonistic assay). Settings: agonistic assay; CHO CXCR7 β-arrestin cells; 90 min at 37° C.; chemiluminescence; read-out: β-Arrestin EC50.
T1 construct: host or cells: CHO (PathHunter CHO-CXCR7 β-arrestin cells)
T1 sequence (P25106 whole entry): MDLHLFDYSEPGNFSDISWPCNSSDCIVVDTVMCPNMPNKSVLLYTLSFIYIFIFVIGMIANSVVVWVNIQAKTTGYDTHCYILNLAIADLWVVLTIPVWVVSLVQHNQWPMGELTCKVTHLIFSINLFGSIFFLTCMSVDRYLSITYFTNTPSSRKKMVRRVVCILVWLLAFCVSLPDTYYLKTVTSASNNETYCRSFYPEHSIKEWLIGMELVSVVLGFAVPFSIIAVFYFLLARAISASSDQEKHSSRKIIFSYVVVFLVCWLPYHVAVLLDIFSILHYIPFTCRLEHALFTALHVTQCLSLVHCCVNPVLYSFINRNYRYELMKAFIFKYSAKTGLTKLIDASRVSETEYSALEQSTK
Assay type: cell-based
Protocol: Lyophilized peptides were weighed on a Microbalance (Mettler MX5) and dissolved in DMSO to a final concentration of 10 mM unless otherwise stated. Stock solutions were kept at +4° C., and protected from light.
2.2 CXCR7 β-Arrestin Recruitment Assay
The PathHunter CHO-CXCR7 (DiscoverX) assay was performed according to the manufacturer's protocol. In brief, CHO CXCR7 β-arrestin cells were seeded at a density of 5000 cells per well in 40 μl of F12 medium in black 96-half volume well culture plates and incubated overnight at 37° C. in a humidified atmosphere with 5% CO2. The next day, serial dilutions of PEM compounds have been prepared in DMSO and subsequently diluted in HBSS buffer containing 0.1% BSA.
For agonistic assay, 10 μl of compound solution or a solution of stromal cell-derived factor-1 (SDF-1) as positive control was added to the cells with a final DMSO concentration of 1% (v/v). The plate was incubated for 90 min at 37° C. in 5% CO2 incubator with gentle shaking (300 rpm) before addition of 40 μl of detection reagent per well. Reaction was developed for 90 min at room temperature in the dark with shaking, and chemiluminescence was measured with a Topcount (Perkin Elmer) luminescence counter.
An EC50 of 4.5 ± 1.1 nM was found for `CC[C@H](C)[C@@H]1NC(=O)[C@H]([C@@H](C)O)NC(=O)[C@H]2CCCN2C(=O)[C@H](Cc2ccc(C(F)(F)F)cc2)NC(=O)[C@H](CCCNC(=N)N)NC(=O)[C@@H](CCCNC(=N)N)NC1=O` [Ex. 72, cyclo(-Ile-^DArg-Arg-Phe(4CF3)-^DPro-Thr-)] (cyclo(I[dR]R[Phe(4-CF3)][dP]T)) in this work.
An EC50 of 14 ± 0.1 nM was found for `O=C1N[C@H](Cc2ccccc2)C(=O)N[C@@H](Cc2c[nH]c3ccccc23)C(=O)N[C@@H](CCCNC2=NCCCN2)C(=O)N2CCCC[C@@H]2C(=O)N2CC[C@H](O)[C@H]2C(=O)N[C@H]1Cc1c[nH]c2ccccc12` [Ex. 73, cyclo(-Trp-^DPhe-Trp-Orn(A56)-^DPip-Pro((3S)OH)—)] (cyclo(W[dF]W[Arg(Nω,Nω'-propylene)][dPip][Pro(3S-OH)])) in this work.
An EC50 of 29.9 ± 8.9 nM was found for `N=C(N)NCCC[C@@H]1NC(=O)[C@H](Cc2c[nH]c3ccccc23)NC(=O)[C@@H](Cc2ccccc2)NC(=O)[C@H](Cn2cccn2)NC(=O)[C@@H]2Cc3ccccc3CN2C(=O)[C@H]2C[C@@H](N)CN2C1=O` [Ex. 74, cyclo(-Ala(1Pyraz)-^DPhe-Trp-Arg-^DPro((4R)NH2)-Tic-)] (cyclo(R[dPro(cis-4-NH2)][Tic][Ala(pyrazol-1-yl)][dF]W)) in this work.
An EC50 of 209 ± 6.6 nM was found for `N=C(N)NCCC[C@@H]1NC(=O)[C@H](Cc2c[nH]c3ccccc23)NC(=O)[C@@H](Cc2ccccc2)NC(=O)[C@H](CCCNc2ncccn2)NC(=O)[C@@H]2Cc3ccccc3CN2C(=O)[C@H]2C[C@@H](N)CN2C1=O` [Ex. 76, cyclo(-Orn(Ar2)-^DPhe-Trp-Arg-^DPro((4R)NH2)-Tic-)] (cyclo([Orn](2Pyrimidinyl)[dF]WR[dPro(cis-4-NH2)][Tic])) in this work.
An EC50 of 78.7 ± 115 nM was found for `CC[C@H](C)[C@@H]1NC(=O)[C@H]([C@@H](C)O)NC(=O)[C@H]2CCCN2C(=O)[C@H](Cc2c[nH]c3ccccc23)NC(=O)[C@H](CCCCN)NC(=O)[C@@H](CCCNC(=N)N)NC1=O` [compound 3, cyclo(-Ile-^DArg-Lys-Trp-^DPro-Thr-)] (cyclo(I[dR]KW[dP]T)) in this work.
An EC50 of 292 ± 101 nM was found for `CC[C@H](C)[C@@H]1NC(=O)[C@H]([C@H](C)O)NC(=O)[C@H]2CCCN2C(=O)[C@H](Cc2c[nH]c3ccccc23)NC(=O)[C@H](CCCNC(=N)N)NC(=O)[C@@H](CCCNC(=N)N)NC1=O` [compound 9, cyclo(-Ile-^DArg-Arg-Trp-^DPro-alloThr-)] (cyclo(I[dR]RW[dP][aThr])) in this work.
An EC50 of 86.7 ± 9.7 nM was found for `CC[C@H](C)[C@@H]1NC(=O)[C@H]([C@@H](C)O)NC(=O)[C@H]2CCCN2C(=O)[C@H](Cc2c[nH]c3ccccc23)NC(=O)[C@H](CCCNC(=N)N)NC(=O)[C@@H](CCCCN)NC1=O` [compound 11, cyclo(-Ile-^DLys-Arg-Trp-^DPro-Thr-)] (cyclo(I[dK]RW[dP]T)) in this work.
An EC50 of 546 ± 241 nM was found for `CC[C@H](C)[C@@H]1NC(=O)[C@H]([C@@H](C)O)NC(=O)[C@H]2CCCN2C(=O)[C@H](Cc2c[nH]c3ccccc23)NC(=O)[C@H](CCCNC(=N)N)NC(=O)[C@@H](Cc2c[nH]cn2)NC1=O` [compound 12, cyclo(-Ile-^DHis-Arg-Trp-^DPro-Thr-)] (cyclo(I[dH]RW[dP]T)) in this work.
An EC50 of 473 ± 68.9 nM was found for `CC[C@H](C)[C@@H]1NC(=O)[C@H]([C@@H](C)O)NC(=O)[C@H]2CCCN2C(=O)[C@H](Cc2c[nH]c3ccccc23)NC(=O)[C@H](CCCNC(=N)N)NC(=O)[C@@H](CCCNC(N)=O)NC1=O` [compound 13, cyclo(-Ile-^DCit-Arg-Trp-^DPro-Thr-)] (cyclo(I[dCit]RW[dP]T)) in this work.
An EC50 of 0.1 nM was found for `CC[C@H](C)[C@@H]1NC(=O)[C@H]([C@@H](C)O)NC(=O)[C@H]2CCCCN2C(=O)[C@H](Cc2c[nH]c3ccccc23)NC(=O)[C@H](CCCNC(=N)N)NC(=O)[C@@H](CCCNC(=N)N)NC1=O` [compound 14, cyclo(-Ile-^DArg-Arg-Trp-^DPip-Thr-)] (cyclo(I[dR]RW[dPip]T)) in this work.
An EC50 of 0.4 ± 0.1 nM was found for `CC[C@H](C)[C@@H]1NC(=O)[C@H]([C@@H](C)O)NC(=O)[C@H]2CCCN2C(=O)[C@H](Cc2ccc3ccccc3c2)NC(=O)[C@H](CCCNC(=N)N)NC(=O)[C@@H](CCCNC(=N)N)NC1=O` [compound 15, cyclo(-Ile-^DArg-Arg-2Nal-^DPro-Thr-)] (cyclo([2Nal][dP]TI[dR]R)) in this work.
An EC50 of 17.9 ± 2.6 nM was found for `CC[C@H](C)[C@@H]1NC(=O)[C@H]([C@@H](C)O)NC(=O)[C@H]2CCCN2C(=O)[C@H](Cc2cccc3ccccc23)NC(=O)[C@H](CCCNC(=N)N)NC(=O)[C@@H](CCCNC(=N)N)NC1=O` [compound 16, cyclo(-Ile-^DArg-Arg-1Nal-^DPro-Thr-)] (cyclo([1Nal][dP]TI[dR]R)) in this work.
An EC50 of 6.7 ± 5.1 nM was found for `CC[C@H](C)[C@@H]1NC(=O)[C@H]([C@@H](C)O)NC(=O)[C@H]2CCCN2C(=O)[C@H](Cc2c[nH]c3ccccc23)NC(=O)[C@H](CCCNC(=N)N)NC(=O)[C@@H](CCCNC(=N)N)NC1=O` [compound 18, cyclo(-Ile-^DArg-Arg-Trp-^DPro-Thr-)] (cyclo(I[dR]RW[dP]T)) in this work.
An EC50 of 17.2 ± 18.9 nM was found for `C[C@@H](O)[C@@H]1NC(=O)[C@H]([C@@H](C)O)NC(=O)[C@H]2CCCN2C(=O)[C@H](CCCNC(=N)N)NC(=O)[C@H](Cc2c[nH]c3ccccc23)NC(=O)[C@@H](CCCNC(=N)N)NC1=O` [compound 19, cyclo(-Thr-^DArg-Trp-Arg-^DPro-Thr-)] (cyclo(R[dP]TT[dR]W)) in this work.
An EC50 of 6.1 ± 3.3 nM was found for `N=C(N)NCCC[C@@H]1NC(=O)[C@H](Cc2c[nH]c3ccccc23)NC(=O)[C@@H](Cc2ccccc2)NC(=O)[C@H](Cc2c[nH]c3ccccc23)NC(=O)[C@@H]2Cc3ccccc3CN2C(=O)[C@H]2C[C@@H](N)CN2C1=O` [compound 26, cyclo(-Trp-^DPhe-Trp-Arg-^DPro((4R)NH2)-Tic-)] (cyclo(R[dPro(cis-4-NH2)][Tic]W[dF]W)) in this work.
An EC50 of 322 ± 48.2 nM was found for `C[C@@H]1NC(=O)[C@@H]2Cc3ccccc3CN2C(=O)[C@H]2C[C@@H](N)CN2C(=O)[C@H](CCCNC(=N)N)NC(=O)[C@H](Cc2c[nH]c3ccccc23)NC(=O)[C@@H](Cc2ccccc2)NC1=O` [compound 27, cyclo(-Ala-^DPhe-Trp-Arg-^DPro((4R)NH2)-Tic-)] (cyclo(A[dF]WR[dPro(cis-4-NH2)][Tic])) in this work.
An EC50 of 20.9 ± 27.3 nM was found for `N=C(N)NCCC[C@@H]1NC(=O)[C@H](Cc2c[nH]c3ccccc23)NC(=O)[C@@H](Cc2ccccc2)NC(=O)[C@H](Cc2ccc(O)cc2)NC(=O)[C@@H]2Cc3ccccc3CN2C(=O)[C@H]2C[C@@H](N)CN2C1=O` [compound 28, cyclo(-Tyr-^DPhe-Trp-Arg-^DPro((4R)NH2)-Tic-)] (cyclo(R[dPro(cis-4-NH2)][Tic]Y[dF]W)) in this work.
An EC50 of 13.6 ± 5 nM was found for `NCC[C@@H]1NC(=O)[C@H](Cc2c[nH]c3ccccc23)NC(=O)[C@@H](Cc2ccccc2)NC(=O)[C@H](Cc2c[nH]c3ccccc23)NC(=O)[C@@H]2Cc3ccccc3CN2C(=O)[C@H]2C[C@@H](N)CN2C1=O` [compound 30, cyclo(-Trp-^DPhe-Trp-Dab-^DPro((4R)NH2)-Tic-)] (cyclo([Dab][dPro(cis-4-NH2)][Tic]W[dF]W)) in this work.
An EC50 of 138 ± 115 nM was found for `NCCCC[C@@H]1NC(=O)[C@H](Cc2c[nH]c3ccccc23)NC(=O)[C@@H](Cc2ccccc2)NC(=O)[C@H](Cc2c[nH]c3ccccc23)NC(=O)[C@@H]2Cc3ccccc3CN2C(=O)[C@H]2C[C@@H](N)CN2C1=O` [compound 31, cyclo(-Trp-^DPhe-Trp-Lys-^DPro((4R)NH2)-Tic-)] (cyclo(K[dPro(cis-4-NH2)][Tic]W[dF]W)) in this work.

Source: patent US9637520B2, “Template-fixed peptidomimetics with CXCR7 modulating activity” (POLYPHOR AG, priority 2010, dated 2017)
